Assay results taken from patent US9371336B2, “Compounds for treating spinal muscular atrophy” (PTC Therapeutics Inc., priority 2012, dated 2016).

Test system: SMN2 minigene mRNA (SMN2-A minigene construct)
Assay: SMN2 minigene mRNA splicing RT-qPCR assay in cultured cells
Format: cell-based, human
Conditions: for inclusion of exon 7 of SMN2 into mRNA / SMN2 minigene FL mRNA relative to vehicle control: HEK293H cells with SMN2-A minigene, 24 hr; for inclusion of exon 7 of SMN2 into mRNA: relative to untreated cells (FIG. 3); for SMN2 minigene FL mRNA relative to vehicle control: rising concentrations, RT-qPCR (FIG. 3); for EC (1.5-fold): Homo sapiens, HEK293-H, HEK293H cells stably transfected with SMN2-A minigene, 24 hours, 7-point concentration data, concentration giving 1.5-fold SMN2 full length mRNA relative to vehicle-treated cells, read-out: EC1.5x for production of full length SMN2 mRNA
How it was run: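 Full-length SMN2 minigene mRNA, measured by exon 7/luciferase-specific RT-qPCR that excludes endogenous SMN1/SMN2, was normalized to GAPDH and expressed relative to vehicle-treated cells via modified ΔΔCt. Stably transfected HEK293H cells received compound (7-point, 3.16-fold series, duplicates) for 24 h at 37 °C.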

| Compound | inclusion of exon 7 of SMN2 into mRNA | SMN2 minigene FL mRNA relative to vehicle control | EC (1.5-fold) [µM] |
| --- | --- | --- | --- |
| CN1CCN(c2ccc3cc(-c4nc5c(Cl)cccc5s4)c(=O)oc3n2)CC1 [Cpd 5, 3-(4-chloro-1,3-benzothiazol-2-yl)-7-(4-methylpiperazin-1-yl)-2H-pyrano[2,3-b]pyridin-2-one] | fully restored exon 7 inclusion | increased SMN2 minigene FL mRNA at low concentrations | 0.1 to 0.3 |
| Cc1ccc2nc(-c3cc4ccc(N5CCN(C)CC5)nc4oc3=O)cn2c1 [Cpd 27, 3-(6-methylimidazo[1,2-a]pyridin-2-yl)-7-(4-methylpiperazin-1-yl)-2H-pyrano[2,3-b]pyridin-2-one] | fully restored exon 7 inclusion | increased SMN2 minigene FL mRNA at low concentrations | 0.1 to 0.3 |
